ChEMBL document CHEMBL3576839, “N-Aryl azacycles as novel sodium channel blockers” (Bioorg Med Chem Lett, 2015)
In brackets after ≈: the same amount, converted by molar mass.

Key:
[1] = target: T1, Sodium channel protein type 9 subunit alpha (Homo sapiens, UniProt Q15858); assay: Inhibition of Nav1.7 (unknown origin) expressed in CHO cells after 45 mins by FLIPR assay; type: cell-based
[2] = Cmax in Sprague-Dawley rat at 3 mg/kg, po; type: ADME, organism-based; design: dose 3 mg/kg, route oral; conditions: in vivo
hERG (KCNH2) = hERG (KCNH2) (Homo sapiens, UniProt Q12809); assay: Inhibition of human ERG at 1 uM
[3] = AUC in Sprague-Dawley rat at 3 mg/kg, po; type: ADME, organism-based; conditions: in vivo
[4] = Tmax in Sprague-Dawley rat at 3 mg/kg, po; type: ADME, organism-based; conditions: in vivo
[5] = Kinetic solubility of the compound at pH 1.2; type: physicochemical; conditions: buffer, read-out: Kinetic_solubility
MDR1 [6] = assay: Apparent permeability from apical to basolateral side in MDCK cells expressing MDR1; type: ADME, cell-based, Canis lupus familiaris; conditions: dog
[7] = Kinetic solubility of the compound at pH 6.8; type: physicochemical; conditions: buffer, read-out: Kinetic_solubility
MDR1 [8] = assay: Efflux ratio of permeability from basolateral to apical side over apical to basolateral side in MDCK cells expressing MDR1; type: ADME, cell-based, Canis lupus familiaris; conditions: dog
MDR1 [9] = assay: Apparent permeability from basolateral to apical side in MDCK cells expressing MDR1; type: ADME, cell-based, Canis lupus familiaris; conditions: dog
[10] = target: T1, Sodium channel protein type 9 subunit alpha; assay: Inhibition of Nav1.7 (unknown origin) by electrophysiological assay

T1 sequence (Q15858 whole entry): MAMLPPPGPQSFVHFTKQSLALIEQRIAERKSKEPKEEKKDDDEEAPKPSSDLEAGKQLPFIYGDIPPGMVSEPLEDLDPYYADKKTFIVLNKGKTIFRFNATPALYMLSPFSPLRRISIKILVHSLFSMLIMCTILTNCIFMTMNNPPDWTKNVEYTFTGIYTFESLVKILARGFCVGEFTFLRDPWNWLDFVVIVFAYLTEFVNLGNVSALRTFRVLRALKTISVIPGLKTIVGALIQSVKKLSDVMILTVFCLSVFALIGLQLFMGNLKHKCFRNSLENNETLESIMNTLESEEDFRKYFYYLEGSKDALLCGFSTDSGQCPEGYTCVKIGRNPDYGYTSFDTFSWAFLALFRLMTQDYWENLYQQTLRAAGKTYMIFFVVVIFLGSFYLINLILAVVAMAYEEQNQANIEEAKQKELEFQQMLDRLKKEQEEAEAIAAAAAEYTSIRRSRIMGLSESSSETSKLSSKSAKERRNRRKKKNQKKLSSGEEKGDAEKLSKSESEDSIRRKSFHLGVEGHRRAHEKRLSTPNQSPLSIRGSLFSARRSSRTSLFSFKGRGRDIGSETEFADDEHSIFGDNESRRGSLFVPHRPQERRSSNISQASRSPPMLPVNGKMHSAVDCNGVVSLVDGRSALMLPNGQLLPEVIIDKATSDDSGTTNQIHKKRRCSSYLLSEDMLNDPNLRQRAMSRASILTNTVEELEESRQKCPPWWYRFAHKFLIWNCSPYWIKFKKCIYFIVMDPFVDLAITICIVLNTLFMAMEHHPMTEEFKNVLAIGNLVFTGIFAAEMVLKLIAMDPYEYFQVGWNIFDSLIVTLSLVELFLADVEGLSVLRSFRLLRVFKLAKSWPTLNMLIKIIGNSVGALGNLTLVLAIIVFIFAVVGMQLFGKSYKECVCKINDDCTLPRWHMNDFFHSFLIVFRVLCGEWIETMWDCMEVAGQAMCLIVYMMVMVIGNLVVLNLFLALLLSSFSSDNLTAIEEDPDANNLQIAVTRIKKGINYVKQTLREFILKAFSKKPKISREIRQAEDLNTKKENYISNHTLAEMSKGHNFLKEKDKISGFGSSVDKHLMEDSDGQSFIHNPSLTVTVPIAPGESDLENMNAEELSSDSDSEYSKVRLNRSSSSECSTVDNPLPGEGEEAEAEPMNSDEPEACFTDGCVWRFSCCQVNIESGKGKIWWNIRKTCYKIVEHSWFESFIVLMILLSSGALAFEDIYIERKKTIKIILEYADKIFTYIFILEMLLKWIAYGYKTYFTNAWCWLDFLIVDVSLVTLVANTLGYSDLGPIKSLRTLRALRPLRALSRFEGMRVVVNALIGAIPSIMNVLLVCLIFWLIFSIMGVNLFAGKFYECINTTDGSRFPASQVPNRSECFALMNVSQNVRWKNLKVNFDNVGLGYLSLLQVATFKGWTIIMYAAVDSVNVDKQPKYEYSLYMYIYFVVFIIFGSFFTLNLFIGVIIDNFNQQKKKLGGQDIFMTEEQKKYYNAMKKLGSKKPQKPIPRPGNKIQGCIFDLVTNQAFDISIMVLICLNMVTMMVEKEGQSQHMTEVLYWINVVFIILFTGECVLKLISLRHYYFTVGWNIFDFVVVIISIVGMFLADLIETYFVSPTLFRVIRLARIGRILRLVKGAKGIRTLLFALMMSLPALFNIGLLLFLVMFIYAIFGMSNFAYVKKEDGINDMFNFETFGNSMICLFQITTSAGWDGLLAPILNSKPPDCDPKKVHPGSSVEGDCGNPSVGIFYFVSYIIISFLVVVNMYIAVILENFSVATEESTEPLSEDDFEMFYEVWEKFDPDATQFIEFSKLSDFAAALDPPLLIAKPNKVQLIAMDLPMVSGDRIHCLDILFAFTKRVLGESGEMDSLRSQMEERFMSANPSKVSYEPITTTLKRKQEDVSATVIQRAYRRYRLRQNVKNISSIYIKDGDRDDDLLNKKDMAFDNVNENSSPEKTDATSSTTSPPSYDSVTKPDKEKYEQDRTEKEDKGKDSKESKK
Sequence of hERG (KCNH2) (Q12809 whole entry): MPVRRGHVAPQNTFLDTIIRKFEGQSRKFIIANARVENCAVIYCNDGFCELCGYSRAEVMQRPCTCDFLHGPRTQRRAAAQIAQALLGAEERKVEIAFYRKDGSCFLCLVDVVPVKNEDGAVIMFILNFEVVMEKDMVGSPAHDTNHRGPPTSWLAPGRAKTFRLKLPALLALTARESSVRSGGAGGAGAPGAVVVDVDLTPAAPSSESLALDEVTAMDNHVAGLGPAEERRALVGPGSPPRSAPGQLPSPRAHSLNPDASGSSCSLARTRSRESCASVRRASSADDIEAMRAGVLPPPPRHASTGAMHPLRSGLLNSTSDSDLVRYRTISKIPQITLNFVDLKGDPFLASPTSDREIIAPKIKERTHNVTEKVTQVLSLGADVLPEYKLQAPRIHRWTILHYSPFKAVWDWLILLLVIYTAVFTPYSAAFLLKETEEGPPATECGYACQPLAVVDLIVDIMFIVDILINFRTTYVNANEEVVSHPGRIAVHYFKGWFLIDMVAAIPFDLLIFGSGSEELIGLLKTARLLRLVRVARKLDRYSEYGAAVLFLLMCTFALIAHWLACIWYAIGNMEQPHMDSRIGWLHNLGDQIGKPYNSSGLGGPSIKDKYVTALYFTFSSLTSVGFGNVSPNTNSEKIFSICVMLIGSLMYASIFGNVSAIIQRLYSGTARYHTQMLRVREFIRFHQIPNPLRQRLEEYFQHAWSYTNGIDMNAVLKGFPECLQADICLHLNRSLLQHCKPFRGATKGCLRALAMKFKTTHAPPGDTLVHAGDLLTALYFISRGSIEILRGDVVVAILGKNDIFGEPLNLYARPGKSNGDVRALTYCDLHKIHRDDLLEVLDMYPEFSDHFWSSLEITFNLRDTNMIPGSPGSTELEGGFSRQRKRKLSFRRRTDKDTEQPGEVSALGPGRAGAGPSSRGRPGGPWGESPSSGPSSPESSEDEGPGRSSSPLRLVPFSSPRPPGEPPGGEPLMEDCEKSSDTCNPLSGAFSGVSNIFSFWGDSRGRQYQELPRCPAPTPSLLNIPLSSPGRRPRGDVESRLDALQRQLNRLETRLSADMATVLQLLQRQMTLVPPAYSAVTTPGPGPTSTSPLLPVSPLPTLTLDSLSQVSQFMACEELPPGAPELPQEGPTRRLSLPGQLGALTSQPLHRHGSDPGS

CC(=O)N1CCN(c2ccc(C(F)(F)F)cc2)c2ccc(-c3cccc(C(N)=O)n3)cc2C1
IC50 [1]: 380 nM

CC(=O)N1CCN(c2ccc(C(F)(F)F)cc2)c2ccc(-c3cccc([C@H](O)CO)n3)cc2C1
Cmax [2]: 94 ng/mL | inhibition at 1 µM (hERG (KCNH2)): 13.9% | AUC [3]: 562 ng·h/mL | Tmax [4]: 2.5 h | solubility kinetic [5]: 80 µM (≈ 37.7 µg/mL) | Papp A→B (MDR1 [6]): 0.9 ×10⁻⁶ cm/s | solubility kinetic [7]: 39 µM (≈ 18.4 µg/mL) | efflux ratio (MDR1 [8]): 31 | Papp B→A (MDR1 [9]): 28.3 ×10⁻⁶ cm/s

NC(=O)c1cccc(-c2ccc3c(c2)OCCCN3c2ccc(C(F)(F)F)cc2)n1
solubility kinetic [5]: 0.08 µM (≈ 0.0331 µg/mL) | solubility kinetic [7]: 0.08 µM (≈ 0.0331 µg/mL)

CS(=O)(=O)N1CCN(c2ccc(C(F)(F)F)cc2)c2ccc(-c3cccc([C@H](O)CO)n3)cc2C1
Ki [10]: 230 nM

CNC(=O)CN1CCN(c2ccc(C(F)(F)F)cc2)c2ccc(-c3cccc([C@H](O)CO)n3)cc2C1
Ki [10]: 440 nM

NC(=O)N1CCN(c2ccc(C(F)(F)F)cc2)c2ccc(-c3cccc([C@H](O)CO)n3)cc2C1
Cmax [2]: 21 ng/mL | inhibition at 1 µM (hERG (KCNH2)): 22.6% | AUC [3]: 133 ng·h/mL | Tmax [4]: 2.5 h | solubility kinetic [5]: 66 µM (≈ 31.2 µg/mL) | solubility kinetic [7]: 1 µM (≈ 0.472 µg/mL)

NC(=O)c1cccc(-c2ccc3c(c2)CNCCN3c2ccc(C(F)(F)F)cc2)n1
solubility kinetic [5]: 18 µM (≈ 7.42 µg/mL) | solubility kinetic [7]: 0.59 µM (≈ 0.243 µg/mL)

NC(=O)c1cccc(-c2ccc3c(c2)CCCCN3c2ccc(C(F)(F)F)cc2)n1
solubility kinetic [5]: 0.03 µM (≈ 0.0123 µg/mL) | solubility kinetic [7]: 0.02 µM (≈ 0.00823 µg/mL)
